As usually defined, the Km is the concentration of substrate that gives half-maximal velocity.

Consider two compounds from publication PMC11940195, “Characterization of a GH43 Bifunctional Glycosidase from Endophytic Chaetomium globosum and Its Potential Application in the Biotransformation of Ginsenosides” (BioTech, 2025).

This assay deals with T1, Xyaf313.
T1 construct: gene of 1380 bp, 460 aa, about 50 kDa theoretical; C-terminal His6; codon-optimized, pPIC9K, secreted from Pichia pastoris GS115, Ni-NTA
Put plainly: p-nitrophenol release, Michaelis-Menten nonlinear fit. The note with it: pH 7, 50 °C (optimal conditions); substrate 0.5-5.0 mM. The assay is classed as biochemical, Chaetomium globosum. The text has this:
p-nitrophenol release, Michaelis-Menten nonlinear fit on Xyaf313

`O=[N+]([O-])c1ccc(O[C@@H]2O[C@@H](CO)[C@H](O)[C@H]2O)cc1` [4-nitrophenyl α-L-arabinofuranoside]: the Km turned out to be 5.65 ± 1.67 mM.

Consider `O=[N+]([O-])c1ccc(O[C@@H]2OC[C@@H](O)[C@H](O)[C@H]2O)cc1` [ρ-nitrophenyl β-D-xylopyranoside], for which the Km stood at 1.77 ± 1.27 mM.
